Assay [1] concerns carrageenan rat paw edema. The experiment in a line: Rat Paw Edema Assay, Oral Dosing. The assay is classed as in vivo. The note with it: 4 h, four hours after drug, read-out: % Difference from Control; for change in vivo at 100 mg/kg: 100 mg/kg oral; for change in vivo at 400 mg/kg: 400 mg/kg oral. The procedure:
The anti-inflammatory activity of representative compounds of this invention was determined by the rat paw edema assay both by local administration (Table XI below) and by oral dosing (Table XII below). For the oral dosing, the procedure of C. A. Winter, E. A. Risley and G. W. Nuss, Proc. Soc. Exp. Biol. Med. III, 544 (1962) was employed with measurement taken four hours after the drug was administered. The local administration tests were carried out similarly except the irritant (carrageenan) and the test compound were injected simultaneously at time zero.
Tables XI and XII report the anti-inflammatory activity of the compounds tested as % difference in the edema or swelling as compared with the control. These Tables also give the response in many instances of more than one dose level of the same drug.

In assay [2] the test system is humeral or antibody response. Briefly: hemolysin test in mice. The assay is classed as in vivo. The following applies: Mus musculus, sc, dose reducing antibody activity by 50% vs control, read-out: HL(ED50).
Assay [3] has as its system cell-mediated immune response to the antigen, Mycobacterium tuberculosis H37Ra. Briefly: delayed hypersensitivity test. The assay is classed as in vivo, mouse. The note with it: mice, dose reducing edema of cell-mediated immune response by 60% vs control; for ED60: Mus musculus, sc, read-out: D.H.S. (ED60). Here is the method:
The immunosuppressant activities of the compounds of this invention were determined via the hemolysin test in mice and by the delayed hypersensitivity test. The hemolysin test used is that described in Methods in Immunology, edited by D. H. Campbell et al, W. A. Benjamin, New York 1963 pages 172-175, and measures humeral or antibody response. The delayed hypersensitivity test measures the effect of a test compound on the ability of a subject mouse to mount a cell-mediated immune response to the antigen, Mycobacterium tuberculosis H37Ra. The mouse is sensitized to the antigen by subcutaneous administration in the base of the tail. The development of the delayed hypersensitivity response may be measured at any time beginning six days after sensitization but is usually done on the ninth day as follows: The right hind paw is injected with purified protein derivative (tuberculin) while the left hind paw (control) receives physiological saline. Both paw volumes are measured after twenty-four hours and significant increase in the volume of the right hand paw is taken as a measure of an effective delayed hypersensitivity response. All compounds were administered by the subcutaneous route.
The D.H.S. (ED60) mg./kg. s.c. value appearing in column 3 is an expression of the effectiveness of the drug in reducing the edema that accompanies the cell-mediated immune response. It is a measure of the number of milligrams per kilogram of body weight of the drug administered subcutaneously which is required to reduce the edema of the cell-mediated immune response by 60% when compared to the control.

Take `O=C(Nc1ccccc1-n1ccnc1)c1cccc([N+](=O)[O-])c1` [Compound 42]: in assay [1], the change in vivo at 100 mg/kg was -9% and the change in vivo at 400 mg/kg is -25%.
`N#Cc1ccc(-c2nc3ccccc3n3ccnc23)cc1` [Compound 149]: the ED50 (usually the dose that gives a 50% effect, or the effect in half of the subjects) in assay [2] is 0.16 mg/kg. For the same molecule, in assay [3], the ED60 was found to be 8.8 mg/kg.
Regarding `Fc1cccc(Nc2nc3ccccc3n3ccnc23)c1` [Compound 181], the ED50 in assay [2] is 16 mg/kg.
In the case of `O=C(Nc1ccccc1-n1ccnc1)C1CCCCC1` [Compound 25], the change in vivo at 100 mg/kg in assay [1] is -30%.
For `Ic1ccc(-c2nc3ccccc3n3ccnc23)cc1` [Compound 196], the median effective dose (ED50) in assay [2] is 0.42 mg/kg. Further, the ED60 in assay [3] was determined as 45 mg/kg.
As to `O=C(Nc1ccccc1-n1ccnc1)c1ccc(F)cc1` [Compound 45], the change in vivo at 100 mg/kg in assay [1] is -33%.
`Clc1ccc(-c2nc3ccccc3n3ccnc23)cc1Cl` [Compound 143]: the 50% effective dose (ED50) in assay [2] stood at 0.36 mg/kg. Besides, the ED60 in assay [3] was found to be 1.3 mg/kg.
`CCCCC1C(=O)N(c2ccccc2)N(c2ccccc2)C1=O` [phenylbutazone, reference compound]: the change in vivo at 100 mg/kg in assay [1] is -76%.
As to `Clc1ccc(Nc2nc3ccccc3n3ccnc23)cc1Cl` [Compound 175], the 50% effective dose (ED50) in assay [2] was 0.09 mg/kg. Further, the ED60 in assay [3] is 5.9 mg/kg.
Turning to `O=[N+]([O-])c1cccc(-c2nc3ccccc3n3ccnc23)c1` [Compound 150], in assay [2], the median effective dose (ED50) was 22 mg/kg. In addition, the ED60 in assay [3] is above 50 mg/kg. Also, the change in vivo at 100 mg/kg in assay [1] is -30%.
`COc1ccc(C(=O)Nc2ccccc2-n2ccnc2)cc1` [Compound 55]: the change in vivo at 100 mg/kg in assay [1] was -26%.
Same read-out and setting: for `O=C(Nc1ccccc1-n1ccnc1)C1CC1` [Compound 23] the value was -46%.
`Cc1ccccc1Nc1nc2ccccc2n2ccnc12` [Compound 197]: the ED50 in assay [2] is 1.6 mg/kg. In assay [3], the ED60 came out at 37 mg/kg.
Turning to `O=C(Nc1ccccc1-n1ccnc1)C(F)(F)F` [Compound 30], in assay [1], the change in vivo at 100 mg/kg worked out at 9% and the change in vivo at 400 mg/kg is -33%.
With `Clc1ccc(Nc2nc3ccccc3n3ccnc23)cc1` [Compound 174], in assay [2], the ED50 is 0.61 mg/kg. In addition, the ED60 in assay [3] amounted to 8 mg/kg.
Regarding `Brc1ccccc1Nc1nc2ccccc2n2ccnc12` [Compound 177], in assay [2], the ED50 worked out at 13 mg/kg. In assay [3], the ED60 is above 50 mg/kg.
For `O=C(Nc1ccccc1-n1ccnc1)C(Cl)Cl` [Compound 29], in assay [1], the change in vivo at 100 mg/kg was -24% and the change in vivo at 400 mg/kg is -25%.
As to `O=C(Nc1cccc(F)c1)Nc1ccccc1-n1ccnc1` [Compound 73], in assay [1], the change in vivo at 100 mg/kg is -22%.
For the molecule `COc1ccc(Oc2ccc(-c3nc4ccccc4n4ccnc34)cc2)cc1` [Compound 220], in assay [2], the median effective dose (ED50) was found to be 2.3 mg/kg. In addition, the ED60 in assay [3] was 11 mg/kg.
For the molecule `Cc1ccc(C(=O)Nc2ccccc2-n2ccnc2)cc1` [Compound 37], in assay [1], the change in vivo at 100 mg/kg was -35%.
For `CCCCSc1ccc(-c2nc3ccccc3n3ccnc23)cc1` [Compound 222], the 50% effective dose (ED50) in assay [2] is 1 mg/kg. Besides, in assay [3], the ED60 was above 32 mg/kg.
Regarding `COc1ccc2c(c1)c(CC(=O)O)c(C)n2C(=O)c1ccc(Cl)cc1` [Indomethacin, reference compound], the change in vivo at 100 mg/kg in assay [1] was -65%.
Same read-out and setting: for `O=C(Nc1ccccc1-n1ccnc1)c1ccc(Cl)cc1Cl` [Compound 52] the value was -26%.
With `Cc1cccc(C(=O)Nc2ccccc2-n2ccnc2)c1` [Compound 36], in assay [1], the change in vivo at 100 mg/kg was -7% and the change in vivo at 400 mg/kg is -68%.
For `CC(=O)Nc1ccccc1-n1ccnc1` [Compound 2] the same measures were -26% and 43%.
In the case of `CCC(=O)Nc1ccccc1-n1ccnc1` [Compound 3], in assay [2], the ED50 stood at 50 mg/kg. Further, the ED60 in assay [3] stood at 50 mg/kg. The “D.H.S. (ED60)” value in assay [3] (s.c.) is 50.0 mg/kg.
In the case of `O=C(Nc1ccc(Cl)cc1)Nc1ccccc1-n1ccnc1` [Compound 75], in assay [1], the change in vivo at 100 mg/kg was -30%.
As to `CC(C)CC(=O)Nc1ccccc1-n1ccnc1` [Compound 14], the change in vivo at 100 mg/kg in assay [1] was -52%.
The same measure, in the same setting: for `CCc1nc2ccccc2n2ccnc12` [Compound 111] the value was -43%; for `O=C(Cc1ccccc1)Nc1ccccc1-n1ccnc1` [Compound 18], -28%.
On the same count and under the same terms, for `CC(=O)Oc1ccccc1C(=O)O` [Aspirin, reference compound] the value was -57%.
As to `Clc1ccc(-c2nc3ccccc3n3ccnc23)c(Cl)c1` [Compound 144], the change in vivo at 100 mg/kg in assay [1] is -26%.
`CC(C)c1ccc(Nc2nc3ccccc3n3ccnc23)cc1` [Compound 218]: the 50% effective dose (ED50) in assay [2] was 1.5 mg/kg. Moreover, in assay [3], the ED60 amounted to 25 mg/kg.
With `Brc1cccc(Nc2nc3ccccc3n3ccnc23)c1` [Compound 178], in assay [2], the median effective dose (ED50) was 11 mg/kg. Also, in assay [3], the ED60 is 46 mg/kg.
For `Cc1ccc(Nc2nc3ccccc3n3ccnc23)cc1` [Compound 171], in that order: 0.96 mg/kg and 59 mg/kg.
Regarding `O=C(Nc1ccccc1-n1ccnc1)C1CCC1` [Compound 24], in assay [1], the change in vivo at 100 mg/kg was -17% and the change in vivo at 400 mg/kg is -25%.
For `Brc1ccc(Nc2nc3ccccc3n3ccnc23)cc1` [Compound 183], the ED50 in assay [2] was 0.39 mg/kg. The ED60 in assay [3] turned out to be 15 mg/kg.
As to `c1ccc(Nc2nc3ccccc3n3ccnc23)cc1` [Compound 170], in assay [2], the 50% effective dose (ED50) is 6.6 mg/kg. Further, the ED60 in assay [3] was above 50 mg/kg.
Consider `CC(C)Cc1nc2ccccc2n2ccnc12` [Compound 121], for which, in assay [1], the change in vivo at 100 mg/kg was -61%.
For the molecule `c1ccc(Oc2ccc(-c3nc4ccccc4n4ccnc34)cc2)cc1` [Compound 219], in assay [2], the ED50 came to 2.5 mg/kg. Besides, in assay [3], the ED60 is above 32 mg/kg.
`CCCCC(CC)C(=O)Nc1ccccc1-n1ccnc1` (stereo not shown) [Compound 15]: in assay [1], the change in vivo at 100 mg/kg was -24% and the change in vivo at 400 mg/kg was -5%.
With `Oc1ccc(-c2nc3ccccc3n3ccnc23)cc1` [Compound 162], the median effective dose (ED50) in assay [2] amounted to 13 mg/kg.
`Brc1cccc(-c2nc3ccccc3n3ccnc23)c1` [Compound 157]: in assay [2], the ED50 was 0.39 mg/kg. The ED60 in assay [3] was found to be 12 mg/kg.
For `Brc1ccc(-c2nc3ccccc3n3ccnc23)cc1` [Compound 146] the same measures were 0.11 mg/kg and 3.1 mg/kg.
On to `Fc1ccccc1Nc1nc2ccccc2n2ccnc12` [Compound 180], for which, in assay [2], the ED50 was 5.6 mg/kg.
In the case of `O=C(Nc1ccccc1-n1ccnc1)c1cccc(C(F)(F)F)c1` [Compound 38], in assay [1], the change in vivo at 100 mg/kg is -41%.
`O=C(Nc1ccccc1-n1ccnc1)NC1CCCCC1` [Compound 68]: in assay [1], the change in vivo at 100 mg/kg was -26%.
Take `Fc1cccc(-c2nc3ccccc3n3ccnc23)c1` [Compound 158]: the 50% effective dose (ED50) in assay [2] is 1 mg/kg. Further, the ED60 in assay [3] worked out at 7.6 mg/kg.
As to `O=C(Nc1ccccc1-n1ccnc1)c1cccc(Cl)c1` [Compound 50], in assay [1], the change in vivo at 100 mg/kg was -20% and the change in vivo at 400 mg/kg was -33%.
Consider `CCCNC(=O)Nc1ccccc1-n1ccnc1` [Compound 66], for which, in assay [2], the 50% effective dose (ED50) is 46 mg/kg. For the same molecule, in assay [3], the ED60 is above 50 mg/kg.
As for `COc1cc(OC)cc(C(=O)Nc2ccccc2-n2ccnc2)c1` [Compound 57], the change in vivo at 100 mg/kg in assay [1] was -35%.
Turning to `Cc1ccc(NC(=O)Nc2ccccc2-n2ccnc2)cc1` [Compound 71], the change in vivo at 100 mg/kg in assay [1] was -22%.
For the molecule `CCCCCCc1nc2ccccc2n2ccnc12` [Compound 115], in assay [1], the change in vivo at 100 mg/kg amounted to 70% and the change in vivo at 400 mg/kg was -25%.

The values are drawn from patent US4160097A, “1-(2-Phenylureylene)imidazoles” (Westwind Pharmaceuticals, Inc., priority 1977, dated 1979).
